37 compounds from patent US10940139B2, “Compounds that interact with the Ras superfamily for the treatment of cancers, inflammatory diseases, rasopathies, and fibrotic disease” (Shy Therapeutics LLC, priority 2017, dated 2021) can be followed below.

Read-outs that look alike come from different tables or passages of the source.

Experiment [1] has as its target KRas G12C/Q61H double mutant (Homo sapiens (Human), UniProt P01116, G12C/Q61H). As to the kind of experiment: Ras GTP binding domain inhibition assay (labeled GTP). Conditions: 20 μM compound. A digest of the protocol:
(§1)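 His-tagged KRas protein (3-10 μg/ml) was captured overnight at 4° C on nickel-coated wells in 50 mM Tris pH 7.5, 1 mM MgCl2, 1 mM DTT. Bound labeled GTP was read by fluorescence after washing.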

Experiment [2] deals with KRas G12D/Q61H double mutant (Homo sapiens (Human), UniProt P01116, G12D/Q61H). The experiment is described as above. In outline: as §1
For a further experiment, the target named is KRas Q61H mutant (Homo sapiens (Human), UniProt P01116, Q61H). Described as above. Conditions: 20 μM compound. In outline: as §1
For a further experiment, the target named is KRas G12D mutant protein (Homo sapiens (Human), UniProt P01116, G12D). The experiment is described as above. Conditions: at 20 μM; read-out: KRas G12D % Inh.
For the next experiment, the target named is Rac-1 (Homo sapiens (Human), UniProt P63000). As to the kind of experiment: Rac inhibition assay (labeled GTP). The format is binding. The following applies: read-out: Rac-1 % Inh.
The target in the next experiment is Rho-A (Homo sapiens (Human), UniProt P61586). As to the kind of experiment: Rho inhibition assay (labeled GTP). The following applies: read-out: Rho-A % Inh. The format is binding.
The mark [3] stands for this setting: read-out: % Inhibition at 20 μM KRas G12C Q61H.
[4] abbreviates: 20 μM compound, read-out: % Inhibition at 20 μM KRas G12D Q61H.
[5] abbreviates: read-out: % Inhibition at 20 μM KRas Q61H.
Setting [6] is: KRas G12C/Q61H double mutant, read-out: % Inhibition at 20 μM of K-Ras mutant and wild-type protein, KRas G12C Q61H.
[7] abbreviates: 20 μM compound, KRas G12D/Q61H double mutant, read-out: % Inhibition at 20 μM of K-Ras mutant and wild-type protein, KRas G12D Q61H.
The mark [8] stands for this setting: KRas Q61H, read-out: % Inhibition at 20 μM of K-Ras mutant and wild-type protein, KRas Q61H.
[9] abbreviates: at 20 μM, read-out: KRas G12D Q61H % Inh.

Rho-A, sequence (P61586 whole entry): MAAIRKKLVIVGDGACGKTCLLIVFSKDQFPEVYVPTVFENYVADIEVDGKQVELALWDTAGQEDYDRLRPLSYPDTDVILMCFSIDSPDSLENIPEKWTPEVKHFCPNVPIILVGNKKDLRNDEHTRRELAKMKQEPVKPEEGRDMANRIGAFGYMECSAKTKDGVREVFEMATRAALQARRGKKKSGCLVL
KRas G12D/Q61H double mutant, sequence (P01116-2 other isoform, or with tags, fused parts or gaps G12D/Q61H): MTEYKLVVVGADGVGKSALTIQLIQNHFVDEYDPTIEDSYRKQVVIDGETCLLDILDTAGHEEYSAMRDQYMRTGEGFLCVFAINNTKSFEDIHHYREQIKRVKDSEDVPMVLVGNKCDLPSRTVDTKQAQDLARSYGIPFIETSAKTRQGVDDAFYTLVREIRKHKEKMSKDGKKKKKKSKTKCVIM
KRas G12D mutant protein, sequence (P01116-2 other isoform, or with tags, fused parts or gaps G12D): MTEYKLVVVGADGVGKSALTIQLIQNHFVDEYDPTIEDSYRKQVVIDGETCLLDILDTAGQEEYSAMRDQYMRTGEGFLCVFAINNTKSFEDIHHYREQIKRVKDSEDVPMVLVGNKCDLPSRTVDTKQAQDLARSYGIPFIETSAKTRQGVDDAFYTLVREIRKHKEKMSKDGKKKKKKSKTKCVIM
KRas Q61H mutant, sequence (P01116-2 other isoform, or with tags, fused parts or gaps Q61H): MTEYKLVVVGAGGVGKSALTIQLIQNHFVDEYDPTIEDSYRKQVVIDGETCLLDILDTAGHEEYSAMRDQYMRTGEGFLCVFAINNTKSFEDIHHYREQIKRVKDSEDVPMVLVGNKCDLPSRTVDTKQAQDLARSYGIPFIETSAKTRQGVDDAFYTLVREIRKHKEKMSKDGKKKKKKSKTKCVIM
KRas G12C/Q61H double mutant, sequence (P01116-2 other isoform, or with tags, fused parts or gaps G12C/Q61H): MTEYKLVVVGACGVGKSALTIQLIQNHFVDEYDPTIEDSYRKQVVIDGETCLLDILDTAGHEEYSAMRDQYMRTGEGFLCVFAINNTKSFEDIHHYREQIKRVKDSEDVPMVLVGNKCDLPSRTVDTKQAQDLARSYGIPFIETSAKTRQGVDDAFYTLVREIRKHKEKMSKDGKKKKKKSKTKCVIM

`CNS(=O)(=O)CCCNC(=O)c1csc2nc(-c3ccccn3)nc(N3CCOCC3)c12` [drawing 2791]: the inhibition at 20 µM in experiment [1] (setting [3]) lay in the range of 25 to 50%; in experiment [2] (setting [4]) it was 1 to 25%; at KRas Q61H mutant (setting [5]), 25 to 50%.
Regarding `Oc1nc(-c2ccccn2)nc2c(-c3cncc(F)c3)csc12` [drawing 3464], the inhibition at 20 µM (in experiment [1] (setting [6]); in experiment [2] (setting [7]); on KRas Q61H mutant (setting [8])) was 1 to 25% each time.
On to `Oc1nc(-c2ccccn2)nc2c(-c3ccccc3OC3CCCCC3)csc12` [drawing 2866], for which the inhibition at 20 µM (in experiment [1] (setting [3]); in experiment [2] (setting [4]); at KRas Q61H mutant (setting [5])) was 51 to 75% throughout.
With `COCCN(CCOC)c1nc(-c2ccccn2)nc2scc(C(=O)NCCc3ccc(OC)nc3)c12` [drawing 2792], the figures for the inhibition at 20 µM (in experiment [1] (setting [3]); in experiment [2] (setting [4]); at KRas Q61H mutant (setting [5])) were 1 to 25%, 1 to 25% and 25 to 50%, respectively.
In the case of `Cn1ccnc1-c1nc(O)c2c(-c3ccccc3)c(-c3ccccc3)sc2n1` [drawing 3536], the inhibition at 20 µM (in experiment [1] (setting [6]); in experiment [2] (setting [7]); on KRas Q61H mutant (setting [8])) was 1 to 25% throughout.
Regarding `COc1nc(-c2ccccn2)nc(Oc2cccc(C(F)(F)F)c2)c1OC` [drawing 3552], the results for the inhibition at 20 µM (in experiment [1] (setting [6]); in experiment [2] (setting [7]); at KRas Q61H mutant (setting [8])) were 0%, 1 to 25% and 0%, respectively.
For the compound `COC(=O)c1csc2nc(-c3ccccn3)nc(N)c12` [drawing 2895], the inhibition at 20 µM (in experiment [1] (setting [3]); in experiment [2] (setting [4]); on KRas Q61H mutant (setting [5])) was 25 to 50% throughout.
For the compound `COc1cnc(C2(N)CCCC2)nc1O` [drawing 3490], the inhibition at 20 µM in experiment [1] (setting [6]) is 1 to 25%; in experiment [2] (setting [7]), 1 to 25%; on KRas Q61H mutant (setting [8]), 0%.
Take `Nc1nc(-c2ccccn2)nc2scc(C(=O)O)c12` [drawing 2906]: the inhibition at 20 µM is 51 to 75% in experiment [1] (setting [3]), 25 to 50% in experiment [2] (setting [4]) and 51 to 75% on KRas Q61H mutant (setting [5]).
`COc1cnc(CNC(=O)c2sc3c(O)nc(-c4ccccn4)nc3c2C)[nH]c1=O` [drawing 3524]: the inhibition at 20 µM in experiment [1] (setting [6]) was 25 to 50%; in experiment [2] (setting [7]) it was 1 to 25%; on KRas Q61H mutant (setting [8]), 0%.
Take `Oc1nc(-c2ccccn2)nc2c(-c3cnc4ccccc4c3)csc12` [drawing 3462]: the inhibition at 20 µM in experiment [1] (setting [6]) lay in the range of 25 to 50%; in experiment [2] (setting [7]), 25 to 50%; on KRas Q61H mutant (setting [8]), 51 to 75%.
Consider `Oc1nc(-c2ccccn2)nc2c(-c3cncnc3)csc12` [drawing 3504], for which the results for the inhibition at 20 µM (in experiment [1] (setting [6]); in experiment [2] (setting [7]); on KRas Q61H mutant (setting [8])) were 1 to 25%, 1 to 25% and 25 to 50%, respectively.
Consider `Oc1nc(-c2ccccn2)nc2cc(-c3cccc(Br)c3)sc12` [drawing 3564], for which the figures for the inhibition at 20 µM (in experiment [1] (setting [6]); in experiment [2] (setting [7]); at KRas Q61H mutant (setting [8])) were 1 to 25%, 25 to 50% and 25 to 50%, respectively.
As for `Cc1cc(OC(F)F)ccc1-c1csc2c(O)nc(-c3ccccn3)nc12` [drawing 2878], the inhibition at 20 µM (in experiment [1] (setting [3]); in experiment [2] (setting [4]); on KRas Q61H mutant (setting [5])) was 25 to 50% throughout.
Take `O=C(NCCc1ccc(O)c(O)c1)c1csc2nc(-c3ccccn3)nc(N3CCOCC3)c12` [drawing 2785]: the values for the inhibition at 20 µM (in experiment [1] (setting [3]); in experiment [2] (setting [4]); on KRas Q61H mutant (setting [5])) were 25 to 50%, 0% and 1 to 25%, respectively.
As to `CC(C)(C)c1ccc(-c2csc3c(O)nc(-c4ccccn4)nc23)cc1` [drawing 2847], the inhibition at 20 µM (in experiment [1] (setting [3]); in experiment [2] (setting [4]); at KRas Q61H mutant (setting [5])) was 51 to 75% each time.
On to `CC(C)c1nn(C)cc1-c1csc2c(O)nc(-c3ccccn3)nc12` [drawing 3501], for which the inhibition at 20 µM (in experiment [1] (setting [6]); in experiment [2] (setting [7]); on KRas Q61H mutant (setting [8])) was 51 to 75% throughout.
On to `COc1ccnc(-c2nc(O)c3c(C#N)csc3n2)c1` [drawing 2782], for which the inhibition at 20 µM in experiment [1] (setting [3]) was 25 to 50%; in experiment [2] (setting [4]), 0%; on KRas Q61H mutant (setting [5]) it was 51 to 75%.
For `COc1cnc(C(C)(C)N)nc1O` [drawing 3491], the inhibition at 20 µM in experiment [1] (setting [6]) was 1 to 25%; in experiment [2] (setting [7]), 1 to 25%; at KRas Q61H mutant (setting [8]), 0%.
Regarding `Cn1cc(C2CN(C(=O)c3csc4c(O)nc(-c5ccccn5)nc34)CCN2)cn1` (stereo not drawn) [drawing 2777], the inhibition at 20 µM lay within 51 to 75% in experiment [1] (setting [3]), 1 to 25% in experiment [2] (setting [4]) and 51 to 75% on KRas Q61H mutant (setting [5]).
For the compound `OCC1(c2ccc(-c3nc(-c4ccccn4)nc(-c4ccc(C5(CO)CC5)cc4)c3Oc3ccccc3)cc2)CC1` [drawing 3532], the inhibition at 20 µM (in experiment [1] (setting [6]); in experiment [2] (setting [7]); on KRas Q61H mutant (setting [8])) was 1 to 25% each time.
Turning to `N#Cc1ccc2c(c1)CCCC2C(=O)Nc1ccnc(-c2ccccn2)n1` (stereo not drawn) [drawing 2855], the inhibition at 20 µM (in experiment [1] (setting [3]); in experiment [2] (setting [4]); at KRas Q61H mutant (setting [5])) was 51 to 75% each time.
For `Cc1c(C(=O)O)sc2c(O)nc(-c3ccccn3)nc12` [drawing 3794], the inhibition at 20 µM fell in the range of 25 to 50% on KRas G12D mutant protein, 51 to 75% in experiment [2] (setting [9]), 76 to 100% at Rac-1 and 51 to 75% at Rho-A.
In the case of `Oc1nc(-c2ccccn2)nc2c(-c3ccc4c(c3)OCO4)csc12` [drawing 3751], the inhibition at 20 µM on KRas G12D mutant protein fell in the range of 51 to 75%; in experiment [2] (setting [9]) it was 51 to 75%; at Rac-1, 76 to 100%; on Rho-A it was 51 to 75%.
Turning to `COc1nc(-c2cn(C)cn2)nc2sc(-c3ccncc3)c(-c3ccccc3)c12` [drawing 3849], the inhibition at 20 µM at KRas G12D mutant protein fell in the range of 25 to 50%; in experiment [2] (setting [9]) it was 25 to 50%; at Rac-1 it was 25 to 50%; on Rho-A, 51 to 75%.
In the case of `COc1ccc(COC[C@H]2OC(c3csc4c(=O)[nH]c(-c5ccccn5)nc34)[C@H](O)[C@@H]2O)cc1` (stereo partly drawn), the inhibition at 20 µM at KRas G12D mutant protein lay in the range of 25 to 50%; in experiment [2] (setting [9]), 25 to 50%; at Rac-1 it was 51 to 75%; at Rho-A, 76 to 100%.
As to `Oc1nc(-c2ccccn2)nc2c(CC3CCNCC3)csc12` [drawing 3805], the inhibition at 20 µM fell in the range of 51 to 75% on KRas G12D mutant protein, 51 to 75% in experiment [2] (setting [9]), 51 to 75% on Rac-1 and 76 to 100% at Rho-A.
As for `CNC(=O)c1ccc(-c2csc3c(O)nc(-c4ccccn4)nc23)cc1C` [drawing 3757], the inhibition at 20 µM was 25 to 50% on KRas G12D mutant protein, 25 to 50% in experiment [2] (setting [9]), 51 to 75% at Rac-1 and 51 to 75% on Rho-A.
Consider `O=C(CCn1ccnc1)Nc1nc(-c2ccccn2)nc2sccc12` [drawing 3761], for which the inhibition at 20 µM on KRas G12D mutant protein was 76 to 100%; in experiment [2] (setting [9]), 51 to 75%; at Rac-1 it was 76 to 100%; on Rho-A it was 76 to 100%.
On to `CC(C)Cc1csc2c(O)nc(-c3ccccn3)nc12` [drawing 3813], for which the inhibition at 20 µM was 51 to 75% at KRas G12D mutant protein, 51 to 75% in experiment [2] (setting [9]), 76 to 100% at Rac-1 and 76 to 100% at Rho-A.
`Cc1cnc(-c2ccccn2)nc1NC(=O)Cc1ccc2cnccc2c1` [drawing 3728]: the inhibition at 20 µM on KRas G12D mutant protein is 51 to 75%; in experiment [2] (setting [9]) it was 51 to 75%; at Rac-1, 76 to 100%; on Rho-A it was 76 to 100%.
Turning to `Cc1cc2nc(-c3ccccn3)nc(N)c2s1` [drawing 3708], the inhibition at 20 µM on KRas G12D mutant protein was 51 to 75%; in experiment [2] (setting [9]), 51 to 75%; at Rac-1, 76 to 100%; at Rho-A it was 76 to 100%.
For `Cn1nnc2ccc(-c3csc4c(O)nc(-c5ccccn5)nc34)cc21` [drawing 3733], the inhibition at 20 µM on KRas G12D mutant protein was in the range of 51 to 75%; in experiment [2] (setting [9]), 51 to 75%; on Rac-1, 76 to 100%; at Rho-A, 51 to 75%.
On to `CN1CCN(c2nc(-c3ccccn3)nc3scc(C(=O)NCCc4cnc(O)nc4)c23)CC1` [drawing 3771], for which the inhibition at 20 µM on KRas G12D mutant protein is 51 to 75%; in experiment [2] (setting [9]) it was 25 to 50%; on Rac-1 it was 51 to 75%; at Rho-A, 51 to 75%.
For the compound `Oc1nc(-c2ccccn2)nc2c(-c3cc(CN4CCCC4)ccc3F)csc12` [drawing 3821], the inhibition at 20 µM at KRas G12D mutant protein fell in the range of 76 to 100%; in experiment [2] (setting [9]), 51 to 75%; on Rac-1 it was 76 to 100%; on Rho-A it was 76 to 100%.
Regarding `Oc1nc(-c2ccccn2)nc2sc3c(c12)CCNC3` [drawing 3723], the inhibition at 20 µM lay in the range of 76 to 100% at KRas G12D mutant protein, 51 to 75% in experiment [2] (setting [9]), 76 to 100% at Rac-1 and 76 to 100% on Rho-A.
As for `O=C(c1csc2c(O)nc(-c3ccccn3)nc12)N1CCC(c2ccncc2)C1` (stereo not drawn) [drawing 3711], the inhibition at 20 µM on KRas G12D mutant protein is 51 to 75%; in experiment [2] (setting [9]), 51 to 75%; on Rac-1 it was 51 to 75%; on Rho-A it was 76 to 100%.
